Experiments:
hPASK (kinase domain) = hPASK (kinase domain) (Homo sapiens (Human), UniProt Q96RG2); experiment: PAS Kinase Luminescence Assay (Kinase-Glo), kinase domain; format: biochemical
Method: (§1) PAS Kinase Luminescence Assay
(§2) One assay for purified hPASK activity utilizes the Kinase-Glo Luminescent Kinase Assay (Promega), which quantifies the amount of ATP remaining in solution following kinase reaction. The assay is carried out in a 96-well plate format and is performed by adding a volume of Kinase-Glo Reagent (Promega, catalog #V3771) equal to the volume of solution in the well of a completed kinase reaction. Kinase-Glo reagent contains Luciferase and its substrate. After addition to a kinase reaction it allows to measure luminescence. The amount of ATP left in solution at the time of Kinase-Glo Plus addition is directly proportional to the luminescence that is measured in each well, and inversely correlated with kinase activity.
(§3) Purified hPASK from insect cells (0.02 μg) is added to a 50 μL reaction mix containing 40 mM HEPES (pH 7.0), 100 mM KCl, 5 mM MgCl2, 1 mM DTT and 1 μg of MBP protein. Inhibitory compounds are then added and the mixture is incubated for 10 min at 25° C. before adding 5 μL of ATP (at desired concentration). The reaction is allowed to proceed at 25° C. for 1 hour before adding 50 μL of Kinase-Glo reagent. The luminescence is measured as soon as 10 minutes after Kinase-Glo reagent is added.
(§4) Results are shown below in Table 1, where NT means not tested.

hPASK (full length) = hPASK (full length) (Homo sapiens (Human), UniProt Q96RG2); experiment: PAS Kinase Luminescence Assay (Kinase-Glo), full length; format: biochemical
Method: as §1, §2, §3, §4

CK2a2 = CK2a2 (Homo sapiens (Human), UniProt P19784); experiment: Biochemical Assay for CK2 Activity; conditions: 33P-ATP radiochemical assay; read-out: IC50 CK2 a2
How it was run: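 GST-tagged full-length human CK2a2 from insect cells (1.2 nM) with 20 μM RRRDDDSDDD peptide, in pH 7.5 HEPES buffer with MgCl2, DTT and 1% DMSO. Reactions started with ³³P-ATP were run for 120 min at room temperature. Substrate phosphorylation was measured by P81 phosphocellulose filter binding and scintillation counting.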

PASK [1] = target: PASK (UniProt #Q96RG2; residues 879-1323) (Homo sapiens (Human), UniProt Q96RG2); experiment: PASK ATP Radiochemical Assay; format: biochemical; conditions: 33P-ATP radiochemical assay; read-out: IC50 Kinase Domain
How it was run: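 Radiometric kinase assay: GST-tagged PASK (5 nM final) from insect cells with Myelin Basic Protein (20 μM) in HEPES pH 7.5 buffer, 1% DMSO; reaction started with ^33P-ATP, 120 min at room temperature. Substrate phosphorylation captured on P81 paper and read by scintillation counting.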

PASK [2] = target: PASK (Homo sapiens (Human), UniProt Q96RG2); experiment: PAS Kinase FRET Assay; format: biochemical; conditions: TR-FRET assay; read-out: IC50 Kinase Domain
How it was run: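 TR-FRET read-out (665/615 nm) of ULight-peptide phosphorylation by PASK, detected with Eu-labelled anti-phospho antibody. Compound, kinase and substrate/ATP reacted 2 h at 25 °C in the dark in 50 mM HEPES, 10 mM MgCl2, 1 mM EGTA, 0.01% Tween-20, 2 mM DTT. Eleven-point dilution series made at 4× final.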

hPASK (full length), sequence (Q96RG2 whole entry): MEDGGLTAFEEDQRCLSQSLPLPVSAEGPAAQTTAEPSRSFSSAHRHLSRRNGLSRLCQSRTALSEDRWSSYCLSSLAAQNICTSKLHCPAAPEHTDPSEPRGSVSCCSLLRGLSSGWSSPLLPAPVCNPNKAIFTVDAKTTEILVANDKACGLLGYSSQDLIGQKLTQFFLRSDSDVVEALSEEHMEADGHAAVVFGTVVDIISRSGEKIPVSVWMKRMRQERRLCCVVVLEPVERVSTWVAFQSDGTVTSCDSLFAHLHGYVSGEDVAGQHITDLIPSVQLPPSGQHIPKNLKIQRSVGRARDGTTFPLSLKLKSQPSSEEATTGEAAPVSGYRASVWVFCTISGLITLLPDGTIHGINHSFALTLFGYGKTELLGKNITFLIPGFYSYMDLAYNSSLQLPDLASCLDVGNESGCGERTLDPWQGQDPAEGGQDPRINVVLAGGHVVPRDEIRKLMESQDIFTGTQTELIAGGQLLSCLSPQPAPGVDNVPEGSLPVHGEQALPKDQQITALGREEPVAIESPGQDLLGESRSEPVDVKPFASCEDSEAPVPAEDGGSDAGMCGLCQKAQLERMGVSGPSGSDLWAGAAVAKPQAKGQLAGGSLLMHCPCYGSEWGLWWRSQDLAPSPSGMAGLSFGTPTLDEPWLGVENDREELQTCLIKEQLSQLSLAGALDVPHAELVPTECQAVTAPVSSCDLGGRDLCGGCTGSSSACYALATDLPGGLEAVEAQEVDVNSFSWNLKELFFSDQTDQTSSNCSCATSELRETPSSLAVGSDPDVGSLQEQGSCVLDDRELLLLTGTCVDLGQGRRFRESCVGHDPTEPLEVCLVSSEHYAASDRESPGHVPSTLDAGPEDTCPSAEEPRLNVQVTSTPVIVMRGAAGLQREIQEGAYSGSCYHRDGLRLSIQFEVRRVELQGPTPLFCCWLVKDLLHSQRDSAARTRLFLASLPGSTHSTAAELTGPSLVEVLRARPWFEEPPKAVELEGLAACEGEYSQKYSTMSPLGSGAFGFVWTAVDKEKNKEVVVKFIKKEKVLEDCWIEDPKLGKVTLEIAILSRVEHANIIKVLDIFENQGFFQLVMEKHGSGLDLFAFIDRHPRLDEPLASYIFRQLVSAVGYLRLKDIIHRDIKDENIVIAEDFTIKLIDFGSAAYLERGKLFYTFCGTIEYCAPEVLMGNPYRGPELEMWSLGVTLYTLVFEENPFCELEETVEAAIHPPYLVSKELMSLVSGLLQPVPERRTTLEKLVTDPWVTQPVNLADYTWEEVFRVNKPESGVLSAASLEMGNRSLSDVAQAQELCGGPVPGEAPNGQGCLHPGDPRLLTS
PASK (Homo sapiens (Human), UniProt Q96RG2), sequence (Q96RG2 999-1251): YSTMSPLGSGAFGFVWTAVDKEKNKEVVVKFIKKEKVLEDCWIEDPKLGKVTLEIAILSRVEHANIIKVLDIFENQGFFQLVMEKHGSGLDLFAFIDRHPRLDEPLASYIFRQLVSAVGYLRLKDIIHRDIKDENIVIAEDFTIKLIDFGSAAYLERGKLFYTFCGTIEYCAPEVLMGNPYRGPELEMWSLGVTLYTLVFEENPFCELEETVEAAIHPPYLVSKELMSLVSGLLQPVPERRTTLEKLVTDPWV
hPASK (kinase domain), sequence (Q96RG2 999-1251): as above
PASK (UniProt #Q96RG2; residues 879-1323) (Homo sapiens (Human), UniProt Q96RG2), sequence (Q96RG2 879-1323): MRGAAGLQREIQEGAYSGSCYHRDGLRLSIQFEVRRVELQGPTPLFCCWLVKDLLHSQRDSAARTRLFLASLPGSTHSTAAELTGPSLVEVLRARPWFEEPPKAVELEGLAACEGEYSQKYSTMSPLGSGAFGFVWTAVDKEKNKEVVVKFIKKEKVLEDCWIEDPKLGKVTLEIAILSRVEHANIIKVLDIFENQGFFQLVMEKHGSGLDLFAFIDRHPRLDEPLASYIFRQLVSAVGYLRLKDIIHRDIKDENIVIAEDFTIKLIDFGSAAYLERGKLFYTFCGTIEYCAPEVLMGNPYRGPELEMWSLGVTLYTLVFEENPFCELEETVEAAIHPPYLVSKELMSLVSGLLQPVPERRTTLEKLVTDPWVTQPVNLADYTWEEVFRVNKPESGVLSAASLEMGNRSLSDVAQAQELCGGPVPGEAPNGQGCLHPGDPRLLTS
CK2a2, sequence (P19784 whole entry): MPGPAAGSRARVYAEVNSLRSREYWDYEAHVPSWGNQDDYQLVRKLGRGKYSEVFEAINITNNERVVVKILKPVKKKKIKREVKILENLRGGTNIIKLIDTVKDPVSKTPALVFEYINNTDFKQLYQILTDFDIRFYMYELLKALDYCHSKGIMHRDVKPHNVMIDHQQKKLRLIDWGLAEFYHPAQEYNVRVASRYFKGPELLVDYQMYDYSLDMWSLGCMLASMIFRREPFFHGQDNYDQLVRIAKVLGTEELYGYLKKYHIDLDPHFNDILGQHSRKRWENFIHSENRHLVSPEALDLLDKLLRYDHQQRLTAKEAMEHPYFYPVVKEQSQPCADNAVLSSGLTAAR

SMILES	IC50 (hPASK (kinase domain))	IC50 (hPASK (full length))	IC50 (CK2a2)	IC50 (PASK [1])	IC50 (PASK [2])
Cc1cc(=O)n2nc(-c3ccc(Cl)cc3)cc2[nH]1 [Example 2, 2-(4-Chloro-phenyl)-5-methyl-4H-pyrazolo[1,5-a]pyrimidin-7-one]	≥ 10 µM	≤ 10 µM	–	–	–
O=c1cc(-c2ccccc2)[nH]c2c(-c3ccc(Cl)cc3)c(Cc3ccccc3)nn12 [Example 10, 2-Benzyl-3-(4-chloro-phenyl)-5-phenyl-4H-pyrazolo[1,5-a]pyrimidin-7-one]	≥ 10 µM	≥ 10 µM	–	–	–
O=c1cc(-c2ccccc2)[nH]c2c(-c3cccc4ccccc34)c(Cc3ccccc3)nn12 [Example 11, 2-Benzyl-3-naphthalen-1-yl-5-phenyl-4H-pyrazolo[1,5-a]pyrimidin-7-one]	≥ 10 µM	≥ 10 µM	–	–	–
COc1ccc(-c2c(C)nn3c(=O)cc(-c4ccccc4)[nH]c23)cc1 [Example 20, 3-(4-Methoxy-phenyl)-2-methyl-5-phenyl-4H-pyrazolo[1,5-a]pyrimidin-7-one]	≥ 10 µM	–	–	–	–
Cc1nn2c(=O)cc(-c3ccc4c(c3)OCCO4)[nH]c2c1-c1ccccn1 [Example 50, 5-(2,3-Dihydrobenzo[b][1,4]dioxin-6-yl)-2-methyl-3-(pyridin-2-yl)pyrazolo[1,5-a]pyrimidin-7(4H)-one]	≤ 10 µM	–	≤ 10 µM	–	–
Cc1nn2c(=O)cc(-c3ccc4c(c3)OCCO4)[nH]c2c1-c1cccnc1 [Example 51, 5-(2,3-Dihydrobenzo[b][1,4]dioxin-6-yl)-2-methyl-3-(pyridin-3-yl)pyrazolo[1,5-a]pyrimidin-7(4H)-one]	≤ 10 µM	–	≤ 10 µM	–	–
O=c1cc(-c2ccccc2)[nH]c2c(-c3ccccn3)cnn12 [Example 52, 5-Phenyl-3-(pyridin-2-yl)pyrazolo[1,5-a]pyrimidin-7(4H)-one]	≤ 10 µM	–	–	–	–
Cc1nn2c(=O)cc(-c3ccc4cc[nH]c4c3)[nH]c2c1Cc1ccccc1 [Example 74, 3-Benzyl-5-(1H-indol-6-yl)-2-methylpyrazolo[1,5-a]pyrimidin-7(4H)-one]	≤ 10 µM	–	≥ 10 µM	≤ 10 µM	–
O=c1cc(-c2cccnc2)[nH]c2c(-c3ccc(F)cc3)cnn12 [Example 78, 3-(4-Fluorophenyl)-5-(pyridin-3-yl)pyrazolo[1,5-a]pyrimidin-7(4H)-one]	≤ 10 µM	–	–	–	–
COc1cc2[nH]nnc2cc1-c1cc(=O)n2nc(N)c(-c3ccccn3)c2[nH]1 [Example 243, 2-Amino-5-(6-methoxy-1H-benzo[d][1,2,3]triazol-5-yl)-3-(pyridin-2-yl)pyrazolo[1,5-a]pyrimidin-7(4H)-one]	–	–	≥ 10 µM	≤ 10 µM	≤ 10 µM
COc1c(-c2cc(=O)n3ncc(-c4ccccn4)c3[nH]2)ccc2[nH]nnc12 [Example 245, 5-(4-Methoxy-1H-benzo[d][1,2,3]triazol-5-yl)-3-(pyridin-2-yl)pyrazolo[1,5-a]pyrimidin-7(4H)-one]	–	–	≤ 10 µM	≤ 10 µM	≤ 10 µM
O=c1cc(-c2cc3nn[nH]c3cc2F)[nH]c2c(-c3ccccn3)cnn12 [Example 249, 5-(6-Fluoro-1H-benzo[d][1,2,3]triazol-5-yl)-3-(pyridin-2-yl)pyrazolo[1,5-a]pyrimidin-7(4H)-one]	–	–	≤ 10 µM	≤ 10 µM	≤ 10 µM
O=c1cc(-c2ccc(-c3ncco3)cc2)[nH]c2c(-c3ccccn3)cnn12 [Example 254, 5-(4-(Oxazol-2-yl)phenyl)-3-(pyridin-2-yl)pyrazolo[1,5-a]pyrimidin-7(4H)-one]	–	–	≥ 10 µM	≤ 10 µM	≤ 10 µM
N#Cc1ccc(-c2cc(=O)n3ncc(-c4ccccn4)c3[nH]2)cc1 [Example 256, 4-(7-Oxo-3-(pyridin-2-yl)-4,7-dihydropyrazolo[1,5-a]pyrimidin-5-yl)benzonitrile]	–	–	≥ 10 µM	≤ 10 µM	≤ 10 µM

Second part, the molecule after the results:

IC50 (hPASK (kinase domain))	IC50 (hPASK (full length))	IC50 (CK2a2)	IC50 (PASK [1])	IC50 (PASK [2])	SMILES
≤ 10 µM	≤ 10 µM	–	–	–	Cc1nn2c(=O)cc(-c3ccc([N+](=O)[O-])cc3)[nH]c2c1-c1ccc(Cl)cc1 [Example 1, 3-(4-Chloro-phenyl)-2-methyl-5-(4-nitro-phenyl)-4H-pyrazolo[1,5-a]pyrimidin-7-one]
≤ 10 µM	≤ 10 µM	–	–	–	Cc1[nH]c2c(-c3ccc(Cl)cc3)cnn2c(=O)c1Cc1ccccc1 [Example 3, 6-Benzyl-3-(4-chloro-phenyl)-5-methyl-4H-pyrazolo[1,5-a]pyrimidin-7-one]
≤ 10 µM	–	–	–	–	Cc1cc(=O)n2nc(-c3cccc(Br)c3)cc2[nH]1 [Example 4, 2-(3-Bromo-phenyl)-5-methyl-4H-pyrazolo[1,5-a]pyrimidin-7-one]
≤ 10 µM	≥ 10 µM	–	–	–	COc1ccc(-c2c(Cc3ccccc3)nn3c(=O)cc(-c4ccccc4)[nH]c23)cc1 [Example 5, 2-Benzyl-3-(4-methoxy-phenyl)-5-phenyl-4H-pyrazolo[1,5-a]pyrimidin-7-one]
≤ 10 µM	≥ 10 µM	–	–	–	COc1ccc(-c2c(C)nn3c(=O)cc(-c4ccccc4)[nH]c23)cc1 [Example 6, 3-(4-Methoxy-phenyl)-2-methyl-5-phenyl-4H-pyrazolo[1,5-a]pyrimidin-7-one]
≤ 10 µM	≥ 10 µM	–	–	–	O=c1cc(-c2ccccc2)[nH]c2c(-c3ccccc3)c(Cc3ccccc3)nn12 [Example 7, 2-Benzyl-3,5-diphenyl-4H-pyrazolo[1,5-a]pyrimidin-7-one]
≤ 10 µM	≤ 10 µM	–	–	–	Cc1nn2c(=O)cc(-c3ccccc3)[nH]c2c1-c1ccc(Cl)cc1 [Example 8, 3-(4-Chloro-phenyl)-2-methyl-5-phenyl-4H-pyrazolo[1,5-a]pyrimidin-7-one]
≤ 10 µM	≤ 10 µM	–	–	–	O=c1cc(-c2ccc([N+](=O)[O-])cc2)[nH]c2c(-c3ccc(Cl)cc3)c(Cc3ccccc3)nn12 [Example 9, 2-Benzyl-3-(4-chloro-phenyl)-5-(4-nitro-phenyl)-4H-pyrazolo[1,5-a]pyrimidin-7-one]
≤ 10 µM	–	≤ 10 µM	–	–	O=c1cc(-c2ccc3c(c2)OCCO3)[nH]c2c(-c3ccccc3)cnn12 [Example 40, 5-(2,3-Dihydrobenzo[b][1,4]dioxin-6-yl)-3-phenylpyrazolo[1,5-a]pyrimidin-7(4H)-one]
≤ 10 µM	–	–	–	–	Cc1nn2c(=O)cc(-c3ccc4c(c3)OCCO4)[nH]c2c1-c1ccccc1 [Example 41, 5-(2,3-Dihydrobenzo[b][1,4]dioxin-6-yl)-2-methyl-3-phenylpyrazolo[1,5-a]pyrimidin-7(4H)-one]
≤ 10 µM	–	–	–	–	O=c1cc(-c2ccc3c(c2)OCO3)[nH]c2c(-c3ccccc3)cnn12 [Example 42, 5-(Benzo[d][1,3]dioxol-5-yl)-3-phenylpyrazolo[1,5-a]pyrimidin-7(4H)-one]
≤ 10 µM	–	≤ 10 µM	–	–	Cc1nn2c(=O)cc(-c3ccc4c(c3)OCO4)[nH]c2c1-c1ccccc1 [Example 43, 5-(Benzo[d][1,3]dioxol-5-yl)-2-methyl-3-phenylpyrazolo[1,5-a]pyrimidin-7(4H)-one]
≤ 10 µM	–	≤ 10 µM	–	–	O=c1cc(-c2ccc3c(c2)OCCO3)[nH]c2c(-c3ccccn3)cnn12 [Example 44, 5-(2,3-Dihydrobenzo[b][1,4]dioxin-6-yl)-3-(pyridin-2-yl)pyrazolo[1,5-a]pyrimidin-7(4H)-one]
≤ 10 µM	–	≤ 10 µM	–	–	O=c1cc(-c2ccc3c(c2)OCCO3)[nH]c2c(-c3cccnc3)cnn12 [Example 45, 5-(2,3-Dihydrobenzo[b][1,4]dioxin-6-yl)-3-(pyridin-3-yl)pyrazolo[1,5-a]pyrimidin-7(4H)-one]
≤ 10 µM	–	–	–	–	O=c1cc(-c2ccc3c(c2)OCO3)[nH]c2c(-c3cccnc3)cnn12 [Example 46, 5-(Benzo[d][1,3]dioxol-5-yl)-3-(pyridin-3-yl)pyrazolo[1,5-a]pyrimidin-7(4H)-one]
≤ 10 µM	–	≤ 10 µM	–	–	Cc1nn2c(=O)cc(-c3ccc4c(c3)OCO4)[nH]c2c1-c1ccccn1 [Example 48, 5-(Benzo[d][1,3]dioxol-5-yl)-2-methyl-3-(pyridin-2-yl)pyrazolo[1,5-a]pyrimidin-7(4H)-one]
≤ 10 µM	–	–	–	–	Cc1nn2c(=O)cc(-c3ccc4c(c3)OCO4)[nH]c2c1-c1cccnc1 [Example 49, 5-(Benzo[d][1,3]dioxol-5-yl)-2-methyl-3-(pyridin-3-yl)pyrazolo[1,5-a]pyrimidin-7(4H)-one]
